Measured values from patent US4145442A, “Phenoxy-hydroxypropylamines, their preparation, and method and pharmaceutical preparations for treating cardiovascular diseases” (priority 1972, dated 1979).
Like-named read-outs stand apart in the source and are kept apart here.

Legend:
Assay type in all cases: in vivo
β-receptors of the heart [1] = target: T1, β-receptors of the heart (Felis catus, UniProt Q9TST6); test: Intrinsic activity on heart rate in reserpinized cat; settings: iv, anesthetized, vagotomized, i.v., read-out: Intrinsic activity % of maximal isoprenaline heart rate
T1 construct: from tissue; host or cells: heart of the anesthetized, reserpine-pretreated, vagotomized cat (in vivo)
T1 sequence (Q9TST6 whole entry): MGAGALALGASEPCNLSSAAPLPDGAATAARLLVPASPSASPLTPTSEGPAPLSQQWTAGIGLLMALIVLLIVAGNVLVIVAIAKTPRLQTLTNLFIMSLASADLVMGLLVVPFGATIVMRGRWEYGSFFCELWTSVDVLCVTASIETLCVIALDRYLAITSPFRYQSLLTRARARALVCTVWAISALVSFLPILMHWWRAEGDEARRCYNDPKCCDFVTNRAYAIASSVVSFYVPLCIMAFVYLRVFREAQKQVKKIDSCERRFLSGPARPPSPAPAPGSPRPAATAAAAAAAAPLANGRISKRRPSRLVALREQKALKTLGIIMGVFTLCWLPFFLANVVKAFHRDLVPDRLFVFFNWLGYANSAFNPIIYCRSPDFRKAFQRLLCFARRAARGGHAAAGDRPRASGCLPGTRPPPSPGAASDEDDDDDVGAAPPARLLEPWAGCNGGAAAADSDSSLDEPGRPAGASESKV
Procedure: (§1) Compounds prepared according to the examples were evaluated for intrinsic activity and blocking effect on heart rate and peripheral vasodilator response to isoprenaline in the cat. Alprenolol was used as a reference source.
(§2) Cats weighing between 1.8 and 2.8 kg were anesthetized with 39 mg/kg pentobarbital sodium, intraperitoneally. The cat had been pre-treated with reserpine, 5 mg/kg intramuscular, about 18 hours before the experiment. Bilateral vagotomy was performed before the start of the experiment.
(§3) The heart rate was recorded on an Offner cardiotachometer triggered by the EKG-complex. Mean arterial blood pressure was recorded from a carotid artery. The peripheral resistance was measured in one of the legs of the cat in the following way: The femoral artery was opened in the inguinal region and the leg was perfused by blood delivered through a sigma motor pump at constant rate. The flow resistance (the pressure) was recorded via pressure transducer connected to the catheter distally to the pump. The paw was excluded from the circulation by a tight ligature. Intravenously injected isoprenaline increased the heart rate and reduced the perfusion pressure. An isoprenaline dose giving 70-80% of the maximal chronotropic response was determined. This dose (usually 0.1 μg/kg) was then repeated with 20-minute intervals. Ten minutes before each isoprenaline injection, the tested substances were administered intravenously for two minutes, starting with a dose of 0.01 mg/kg and increasing each subsequent dose fourfold. The intrinsic effects of the test substances were determined. The dose producing 50% blockade of the isoprenaline responses was evaluated from the plotted log dose percent blockade diagrams.

β-receptors of the heart [2] = target: T1, β-receptors of the heart; test: β-blockade of isoprenaline heart rate response in reserpinized cat; settings: iv, read-out: β-blockade heart rate ED50
Procedure: as §1, §2, §3

[3] = target: T2, β2-receptors of the smooth muscles (Felis catus, UniProt Q9TST5); test: β-blockade of isoprenaline peripheral vasodilator response (peripheral vascular resistance) in reserpinized cat; settings: iv, 50% blockade of isoprenaline (usually 0.1 μg/kg) response
T2 construct: from tissue; host or cells: vascular bed of the blood-perfused leg of the anesthetized cat, paw excluded (in vivo)
T2 sequence (Q9TST5 whole entry, the tested form may be a part): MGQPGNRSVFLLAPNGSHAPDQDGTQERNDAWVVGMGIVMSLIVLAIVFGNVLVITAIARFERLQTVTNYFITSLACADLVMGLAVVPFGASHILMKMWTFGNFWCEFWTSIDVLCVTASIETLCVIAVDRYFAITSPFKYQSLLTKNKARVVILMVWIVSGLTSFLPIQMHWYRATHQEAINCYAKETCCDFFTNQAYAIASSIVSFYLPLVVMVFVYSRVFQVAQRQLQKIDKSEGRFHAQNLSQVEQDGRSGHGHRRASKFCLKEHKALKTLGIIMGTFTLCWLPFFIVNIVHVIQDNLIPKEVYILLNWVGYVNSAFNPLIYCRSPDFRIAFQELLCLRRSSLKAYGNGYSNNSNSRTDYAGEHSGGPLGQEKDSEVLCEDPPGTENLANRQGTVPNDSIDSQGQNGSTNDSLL
Procedure: as §1, §2, §3

[4] = reserpinized cat, i.v., 50% blockade of isoprenaline (usually 0.1 μg/kg) response

COCCc1ccc(OCC(O)CNC(C)C)c(Br)c1 (stereo not drawn) [Example 1, 1-isopropylamino-3-[2'-bromo-4'-(β-methoxyethyl)-phenoxy]-propanol-2]
Emax (β-receptors of the heart [1]): 0% | ED50 (β-receptors of the heart [2]; [4]): 0.03 mg/kg | ED50 [3]: 1 mg/kg

COCCc1ccc(OCC(O)CNC(C)C)c(Cl)c1 (stereo not drawn) [Example 2, 1-isopropylamino-3-[2'-chloro-4'-(2-methoxyethyl)phenoxy]-propanol-2]
Emax (β-receptors of the heart [1]): 0% | ED50 (β-receptors of the heart [2]; [4]): 0.1 mg/kg | ED50 [3]: 3 mg/kg

COCCc1ccc(OCC(O)CNC(C)(C)C)c(Cl)c1 (stereo not drawn) [Example 3]
Emax (β-receptors of the heart [1]): 0% | ED50 (β-receptors of the heart [2]; [4]): 0.03 mg/kg | ED50 [3]: 1 mg/kg

COCCc1ccc(OCC(O)CNC(C)C)c(COC)c1 (stereo not drawn) [Example 4, 1-isopropylamino-3-[2'-methoxymethyl-4'-(2-methoxyethyl)phenoxy]-propanol-2]
Emax (β-receptors of the heart [1]): 5% | ED50 (β-receptors of the heart [2]; [4]): 0.2 mg/kg | ED50 [3]: 5 mg/kg

COCCCc1ccc(OCC(O)CNC(C)C)c(Cl)c1 (stereo not drawn) [Example 5, 1-isopropylamino-3-[2'-chloro-4'-(3-methoxy-n-propyl)phenoxy]-propanol-2]
Emax (β-receptors of the heart [1]): 0% | ED50 (β-receptors of the heart [2]; [4]): 0.3 mg/kg | ED50 [3]: 2 mg/kg

COCCCc1ccc(OCC(O)CNC(C)C)c(Br)c1 (stereo not drawn) [Example 6, 1-isopropylamino-3-[2'-bromo-4'-(3-methoxypropyl)phenoxy]-propanol-2]
Emax (β-receptors of the heart [1]): 0% | ED50 (β-receptors of the heart [2]; cat): 0.4 mg/kg | ED50 [3]: 1.5 mg/kg

COCc1ccc(OCC(O)CNC(C)C)c(OC)c1 (stereo not drawn) [Example 7, 1-isopropyalmino-3-[2'-methoxymethylphenoxy]-propanol-2]
Emax (β-receptors of the heart [1]): 1% | ED50 (β-receptors of the heart [2]; [4]): 0.6 mg/kg | ED50 [3]: 3 mg/kg

C=CCc1cc(CCOC)ccc1OCC(O)CNC(C)C (stereo not drawn) [Example 8, 1-isopropylamino-3-[2'-allyl-4'-(2-methoxyethyl)-phenoxyl]propanol-2]
Emax (β-receptors of the heart [1]): 0% | ED50 (β-receptors of the heart [2]; [4]): 0.1 mg/kg | ED50 [3]: 0.8 mg/kg

CCCc1cc(CCOC)ccc1OCC(O)CNC(C)C (stereo not drawn) [Example 9, 1-isopropylamino-3-[2'-propyl-4'-(2-methoxyethyl)phenoxy]-propanol-2]
Emax (β-receptors of the heart [1]): 0% | ED50 (β-receptors of the heart [2]; [4]): 0.1 mg/kg | ED50 [3]: 0.5 mg/kg

C=CCc1cc(CCCOC)ccc1OCC(O)CNC(C)C (stereo not drawn) [Example 10, 1-isopropylamino-3-[2'-allyl-4'-(3-methoxy-n-propyl)phenoxy]-propanol-2]
Emax (β-receptors of the heart [1]): 0% | ED50 (β-receptors of the heart [2]; [4]): 0.3 mg/kg | ED50 [3]: 1 mg/kg

CSCCc1ccc(OCC(O)CNC(C)C)c(F)c1 (stereo not drawn) [Example 11, 1-isopropylamino-3-[2'-fluoro-4'-(2-methylmercaptoethyl)phenoxy]-propanol-2xHCl]
Emax (β-receptors of the heart [1]): 0% | ED50 (β-receptors of the heart [2]; [4]): 0.2 mg/kg | ED50 [3]: 1 mg/kg

COCCCc1ccc(OCC(O)CNC(C)C)c(OC)c1 (stereo not drawn) [Example 12, 1-isopropylamino-3-[2'-methoxy-4'-(3-methoxy-n-propyl)phenoxy]-propanol-2xHCl]
Emax (β-receptors of the heart [1]): 0% | ED50 (β-receptors of the heart [2]; cat): 0.4 mg/kg | ED50 [3]: 5 mg/kg

COCCc1ccc(OCC(O)CNC(C)C)c(F)c1 (stereo not drawn) [Example 13, 1-isopropylamino-3-[2'-fluoro-4'-(2-methoxyethyl)phenoxy]-propanol-2xHCl]
Emax (β-receptors of the heart [1]): 0% | ED50 (β-receptors of the heart [2]; [4]): 0.05 mg/kg | ED50 [3]: 2.7 mg/kg
